Assay results from paper PMC3081989 (Biochemistry, 2010).
One block for each compound: values may come before it. Where a SMILES comes first, the peptide text is derived from it.

Legend:
[1] = system: humans; conditions: cited from earlier work
[2] = system: hRXRα-LBD homodimer; assay: hydrogen deuterium exchange mass spectrometry; type: binding, human
[3] = target: T1, hRXRα-LBD:9cRA homodimers (Homo sapiens, UniProt P19793); assay: isothermal titration calorimetry; conditions: 37 °C, buffer C pH 8.0, single-site binding model
T1 sequence (P19793 223-462): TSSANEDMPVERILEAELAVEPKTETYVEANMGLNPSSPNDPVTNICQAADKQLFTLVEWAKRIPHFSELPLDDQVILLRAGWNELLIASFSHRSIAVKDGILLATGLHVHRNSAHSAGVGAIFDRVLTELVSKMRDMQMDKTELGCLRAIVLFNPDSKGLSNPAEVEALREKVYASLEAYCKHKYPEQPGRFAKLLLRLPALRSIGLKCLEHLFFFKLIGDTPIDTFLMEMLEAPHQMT

[4] = target: GRIP-1 (NCOA2/TIF2) NR-box II coactivator peptide, 13-mer (UniProt Q15596); assay: ITC; conditions: pH 8.0, 25 °C, 50 mM NaCl, buffer C: 10 mM Tris

change in deuterium incorporation of peptides around the ligand binding pocket ([2]; relative to apo-hRXRα-LBD, upon 9cRA binding): 10–37%
Compound: CC1=C(/C=C/C(C)=C\C=C\C(C)=C\C(=O)O)C(C)(C)CCC1 [9cRA, 9-cis-retinoic acid]
toxicity ([1]; oral administration to humans): displays significant toxicity with oral administration to humans | reduction in deuterium incorporation, peptide L419-F438 (H11) ([2]; following 15 s of deuterium incorporation, 9cRA alone): > 20% | rate of deuterium incorporation, H12 region ([2]; hRXRα-LBD:9cRA versus apo-hRXRα-LBD, GRIP-1 added to hRXRα-LBD:9cRA): unaltered rates of incorporation | reduction in deuterium incorporation, peptide L301-L308 (H4) ([2]; text: upon the addition of GRIP-1 versus in the presence of 9cRA alone): 12%

Kd [3]: 1000 ± 50 nM
Compound: CC[C@H](C)[C@H](NC(=O)[C@H](CCCCN)NC(=O)[C@H](Cc1c[nH]cn1)NC(=O)[C@@H](N)CCCCN)C(=O)N[C@@H](CC(C)C)C(=O)N[C@@H](Cc1c[nH]cn1)C(=O)N[C@@H](CCCNC(=N)N)C(=O)N[C@@H](CC(C)C)C(=O)N[C@@H](CC(C)C)C(=O)N[C@@H](CCC(N)=O)C(=O)N[C@@H](CC(=O)O)C(=O)N[C@@H](CO)C(=O)N[C@@H](CO)C(=O)O [GRIP-1] (H-KHKILHRLLQDSS-OH)

Compound: C=C(c1ccc(C(=O)O)cc1)c1cc2c(cc1C)C(C)(C)CCC2(C)C [Targretin]
dose limiting toxicities compared with 9cRA ([1]; oral treatment of cutaneous T-cell lymphoma): significantly fewer dose limiting toxicities than 9cRA

ΔH [4]: -9.15 kcal/mol
Compound: Retinoid X receptor alpha ligand-binding domain, homodimer loaded with 9-cis-retinoic acid (hRXRalpha-LBD:9cRA)
